Data from US20220072101A1, “HARNESSING INFLAMMATION TO TREAT NEURODEVELOPMENTAL DISORDERS” (President and Fellows of Harvard College, priority 2019, published 2022).
Entries after “also recorded” stand apart in the source; their conditions may differ.

Legend:
Assay type in all cases: in vivo, mouse
[1] = system: IL-17a, IFNγ, IL-6, TNFα; assay: ELISA of cytokines in plasma and brain lysate
Procedure: Mice were put under general anesthesia by intraperitoneal injection of Ketamine (100 mg/kg, i.p.) and xylazine (10 mg/kg, i.p.). Blood was collected by retro-orbital puncture, using clean heparinized microhematocrit capillary tubes (Fisher Scientific®). Once the tube was withdrawn, slight pressure was applied on the eyelid with gauze to prevent further bleeding. All blood samples were centrifuged at 15,000 g for 3 min at room temperature. For quantification of cytokines in brain lysate, samples were disrupted in cold lysis buffer with protease inhibitor cocktail for 60 seconds using the Micro-Homogenizer (VWR International) and centrifuged for 30 min at 15,000×g to remove insoluble precipitates. All samples were stored at −80° C. until further analysis. Plasma and brain lysate cytokines concentrations were measured using an ELISA kit (Biolgened™), following the manufacturer's instructions.
After four hours of vehicle or LPS administration, mice were anesthetized by intraperitoneal injection of fatal plus (100 mg/kg). All blood samples were centrifuged at 10,000 g for 10 min at 4 C. All samples were stored at −80° C. until further analysis. Cytokines concentrations in plasma were measured using an ELISA kit (IFN-γ; 430804, TNF-α; 430904, IL-6; 431304, IL-17a; 432504, Biolegend®), following the manufacturer's instructions.

[2] = system: c-Fos; assay: Quantification of c-Fos+ cells in the brain after LPS administration
Procedure: Animals were transcardially perfused with cold PFA (4% in PBS). Brains were kept in PFA overnight at 4° C. prior to vibratome sectioning (Leica VT1000s®). Brains were cut at 50 μm thickness for cFos quantification. Brains were cut at 100 μm thickness for all other experiments.
Prior to antibody labeling, sections were incubated in blocking solution (0.4% Triton X-100 and 2% goat serum in PBS) for 30 min. Sections were then incubated in blocking solution containing primary antibodies overnight at room temperature. Primary antibodies used were chicken anti-GFP (1:1000, Ab5450, Abcam®), rabbit anti-cFos (1:500, ABE457, Millipore®), rabbit anti-DsRed (1:1000, 632496, Clontech®). Sections were washed in wash buffer (0.4% Triton X-100 in PBS) three times before secondary antibody labeling. Sections were incubated in blocking solution containing secondary antibodies and DAPI (1:5000, D1306, Thermofisher™) for three hours at room temperature. Images of stained slices were acquired using a confocal microscope (LSM710, Carl Zeiss®) with a 10× or 20× objective lens.
Adult male mice were sacrificed five hours after LPS injection. c-Fos+ cells were quantified using the Cell Counter plugin in Fiji^25. All cells were counted within a single coronal section of each respective brain region as defined by the Paxinos and Franklin Mouse Atlas^26. Regions quantified include mPFC (Including only PrL and IL) (AP+1.98), S1DZ (AP-0.48), S1BF (AP-0.48), M1 (AP-0.46), M2 (AP-0.46), AuD (AP-1.94), CeA (AP-1.94), and V1 (AP-3.64). Somatosensory cortex dysgranular zone (S1DZ), somatosensory cortex barrel field (S1BF), secondary motor cortex (M2), primary motor cortex (M1), secondary auditory cortex dorsal part (AuD), central amygdala (CeA), medial prefrontal cortex (mPFC), prelimbic cortex (PrL), infralimbic cortex (IL), primary visual cortex (V1).
Adult male mice were sacrificed five hours after LPS injection. c-Fos^+ cells were quantified using the Cell Counter plugin in Fiji^28. All cells were counted within a single coronal section of each respective brain region as defined by the Paxinos and Franklin Mouse Atlas^29. Regions quantified include mPFC (PrL and IL) (AP+1.98), S1DZ (AP-0.46), S1BF (AP-0.46), M1 (AP-0.46), M2 (AP-0.46), AuD (AP-1.94), CeA (AP-1.94), and V1 (AP-3.64). Medial prefrontal cortex (mPFC), prelimbic cortex (PrL), infralimbic cortex (IL), primary somatosensory cortex dysgranular zone (S1DZ), primary somatosensory cortex barrel field (S1BF), primary motor cortex (M1), secondary motor cortex (M2), secondary auditory cortex dorsal part (AuD), central amygdala (CeA), primary visual cortex (V1). […]

[3] = system: layer 2/3 pyramidal neurons in S1DZ; assay: Whole-cell patch clamp recordings in brain slices of Veh- or LPS-injected MIA offspring; conditions: S1DZ pyramidal neurons from LPS-injected MIA offspring
[4] = system: MIA offspring; assay: Marble burying assay; conditions: four hours after LPS
Procedure: On day 1, mice were tested for their baseline marble burying phenotype. On day 2, four hours prior to beginning the marble burying assay, mice were treated with either LPS or vehicle. Marble burying assay was carried out as described previously^8. Mice were placed into testing arenas (arena size: 40 cm×20 cm×30 cm, bedding depth: 3 cm) each containing 20 glass marbles (laid out in four rows of five marbles equidistant from one another). At the end of the 15 min exploration period mice were carefully removed from the testing cages and the number of marbles buried was recorded. The marble burying index was arbitrarily defined as the following: 1 for marbles covered >50% with bedding, 0.5 for marbles covered <50% with bedding, or 0 for anything less.

Q: What does the source list for lipopolysaccharide [LPS]?
A: IL-17a in the brain ([1]; IFNγ KO MIA offspring, LPS treatment): no longer detectable; IL-17a and IFNγ levels in the brain ([1]; MIA offspring injected with LPS, brain lysate): elevated levels of IL-17a, but not IFNγ, in the brain; plasma levels of IFNγ, IL-6, TNFα and IL-17a ([1]; MIA offspring, LPS i.p.): increased plasma levels of inflammatory cytokines; also recorded: robust increase in plasma levels of IFNγ, IL-6, TNFα and IL-17a; plasma/blood levels of inflammatory cytokines (IL-17a, IFNγ) ([1]; PBS (control) offspring, LPS 50 μg/kg i.p.): insufficient to produce high levels of inflammatory cytokines; also recorded: failed to increase IL-17a and IFNγ levels in the blood; plasma levels of IFN-γ, IL-6, and TNF-α ([1]; PBS, MIA, WT and monogenic mutant mice (FIG. 23A), four hours after LPS): robust increase in plasma levels of IFN-γ, IL-6, and TNF-α; plasma/blood IL-17a, MIA offspring vs monogenic mutant mice and controls ([1]; four hours after LPS): did not induce comparable amounts of interleukin-17a (IL-17a) as in MIA offspring; also recorded: prominently upregulated in MIA offspring, but not in monogenic mutant mice or in control animals; also recorded: increase in IL-17a levels in the blood selectively in MIA offspring, but not in other monogenic mutant mice; number of c-Fos+ S1DZ neurons ([2]; LPS-treated MIA offspring, five hours after LPS): indistinguishable from that of PBS offspring; also recorded: reduced to levels of control offspring; number of c-Fos-expressing neurons in the central amygdala (CeA) ([2]; MIA offspring, LPS): increased; number of c-Fos-expressing neurons in other cortical regions ([2]; MIA offspring, LPS, S1BF, M1, M2, mPFC, AuD, V1): remained unchanged; also recorded: does not have a distinguishable effect on c-Fos expression in other cortical regions analyzed; number of S1DZ c-Fos+ neurons ([2]; monogenic mutant mice (Cntnap2, Fmr1, Shank3), LPS): failed to reduce the number of S1DZ c-Fos^+ neurons in monogenic mutant mice; spiking in response to depolarizing current injections [3]: reduced spiking in response to depolarizing current injections; marble burying behavior [4]: rescued an enhanced marble burying behavior
